We go through one compound from patent publication US11207379B2, “Peptides with anti-cancer activity” (IDP DISCOVERY PHARMA, S.L., priority 2016, dated 2021).

Format in all cases: cell-based
Test [1] deals with JB healthy cells (BJ, fibroblast, normal skin). Put plainly: Viability assay (MTT, Alamar Blue, hexosaminidase), 72 h. On the procedure: BJ, fibroblast (normal skin), ATCC® CRL-2522™
(§1) Cell lines A549, MCF-7 and RAMOS were cultured in incubator under CO2 (6%) at 37° C. in DMEM high glucose (Dulbecco's Modified Eagle Solution, Gibco-BRL 31966-21) medium with 10% fetal bovine serum inactivated (FBS) (Gibco-BRL 10106-169). Cell lines HL-60 and MM.1S were cultured in incubator at 37° C. in RPMI-1640 (Sigma R8758) medium with 10% of fetal bovine serum inactivated (FBS) and 2 mM glutamine (Sigma G7513). Cell lines BJ were cultured in incubator under CO2 (6%) at 37° C. in Eagle's Minimum Essential Medium (Sigma, M-2279) with 10% fetal bovine serum inactivated (FBS) (Gibco-BRL 10106-169).
During the amplification step and the assays adherent cells were rinsed with DPBS (Dulbecco's Phosphate Buffered Saline, Sigma D1283) three times and afterward treated for 5 minutes with trypsin ([…]) (Gibco-BRL, 15400054) in solution of DPBS at 37° C., and, once detached, transferred in the culturing medium. […] Cells were counted in a Neubauer chamber after labelling with Tripan-Blue. […]
Cells were incubated during 72 h in incubator under CO2 atmosphere at 37° C. Cell viability was measured by means of MTT (3-(4,5-dimethylthiazol-2-yl)-2.5-diphenyltetrazolium bromide) assay, Alamar Blue® (Biosource DAL1100) and Hexosaminidase activity test, consecutively, following manufacturer instructions. […]

Test [2] addresses A549, epithelial (lung cancer). The description is as above. To be noted: A549 cells, read-out: EC50. On the procedure:
A549, epithelial (lung cancer), ATCC:CCL-185
as §1
(§2) During the amplification step and the assays adherent cells were rinsed with DPBS (Dulbecco's Phosphate Buffered Saline, Sigma D1283) three times and afterward treated for 5 minutes with trypsin ([…]) (Gibco-BRL, 15400054) in solution of DPBS at 37° C., and, once detached, transferred in the culturing medium. No-adherent cells were centrifuged and transferred in the culturing medium. Cells were counted in a Neubauer chamber after labelling with Tripan-Blue.
(§3) A549, MCF-7 and JB cells were seeded at a density of 5000 cells/well and HL-60, MM.1S and Ramos at 10000 cells/well in 100 μl of medium in 96 well plates. After 24 h, the compounds to be tested were added to calculate the dose/response curve at the starting concentration of 100 μM with serial dilutions (1:1). Controls are the untreated cells. Each experiment was performed in triplicate.
(§4) Cells were incubated during 72 h in incubator under CO2 atmosphere at 37° C. Cell viability was measured by means of MTT (3-(4,5-dimethylthiazol-2-yl)-2.5-diphenyltetrazolium bromide) assay, Alamar Blue® (Biosource DAL1100) and Hexosaminidase activity test, consecutively, following manufacturer instructions.
(§5) MTT: 1. Stock solution of MTT (475989 Calbiochem) was 5 mg/ml in PBS 1×. As negative control (experiment noise) 3 wells were treated with 20 μl/well of a solution of SDS 10% in H2O. The same control was used for Alamar Blue/Hexosaminidase. 10 μl/well of MTT solution were added and the plate was incubated for 3-4 hr. The medium was discarded and 100 μl of extracting buffer (PBS 1×, 15% SDS, 50% […] N,N-Dimethylformamide, pH 4.7) were added to each well. Plates were incubated for 16 h at room temperature under orbital shaking. Absorbance at 570 nm was finally measured.
(§6) Alamar Blue: 10 μl Alamar Blue solution was added to each well and the plates were incubated for […] in the incubator. Fluorescence ratio at 535/590 (excitation/emission) was measured in Cytofluor (Millipore) fluorimeter. Blank control was determined by lysis of untreated cells with con 2% of Triton X100, right before adding Alamar Blue solution.
(§7) Hexosaminidase activity test: after Alamar Blue lecture, medium was discarded and plates were rinsed once with PBS. 60 μl hexosaminidase substrate (p-nitrophenol-N-acetyl-beta-D-glucosamide 7.5 mM [Sigma N-9376], sodium citrate 0.1 M, pH 5.0, 0.25% Triton X-100) was added to each well and the plates were incubated at 37° C. for 2-5 h, according to the cell type (hexosaminidase activity changes according to the cell type). […] Blank control was the same as described before.
(§8) Data analysis was performed calculating the percentage of cell viability normalized vs. the values of negative control, which was considered equal to 100%. The dose/response curve was fitted through the sigmoidal equation dose-response (variable slope) and the EC50 values were calculated as follow: Y=Bottom+(Top−Bottom)/(1+10^{[(Log EC50−X)*HillSlope]},

The test system of test [3] is MM.1S cells. Put plainly: Annexin V assay by flow cytometry. Here is the method:
(§9) Miltenyi Biotec Annexin V-FITC Kit was used. To detect apoptosis in early stage Phosphatidylserine in plasmatic membrane localization was measured, though the calcium dependent reaction with Annexine V. Annexin V molecules were labelled with different fluorophores (FITC) and analyzed by FACS. To detect apoptosis in late stage DNA-intercalating agents, such Propidium iodide (PI) were used.
(§10) Cells were seeded at a density range of 150000-30000 cells/well in 12 wells plates, and incubated at 37° C. in the incubator under CO2 atmosphere. After 24 h, treatments at 4 h, 8 h, 18 h, 48 h and 72 h were performed in cell lines A549, HL-60 and MM.1S, at IC30 and/or IC80, with compounds IDP-S09 and IL-09, in cell lines HL-60 and MM.1S with compound IDP-S04 and in cell line A549 with compounds IDP-S02 and IDP-S03. Staurosporine and compound 100258-F4 (Sigma) were used as positive control and reference compound, respectively.

The subject of test [4] is HL-60 cells. Briefly: Annexin V assay by flow cytometry. Conditions: for Percentage of HL-60 gated cells (positive to Annexin V): compound at EC30, control = 100%. Here is the method:
as §9, §10

In test [5] the target is RAMOS, B lymphocyte (Burkitt's Lymphoma). Put plainly: Viability assay (MTT, Alamar Blue, hexosaminidase), 72 h. Conditions: Ramos cells, read-out: EC50. On the procedure: RAMOS, B lymphocyte (Burkitt's Lymphoma), ATCC: CRL-1596
as §1, §2, §3, §4, §5, §6, §7, §8

Test [6] deals with MM.1S, B Lymphoblast (multiple myeloma). Described as above. Conditions: MM.1S cells, read-out: EC50. On the procedure:
MM.1S, B Lymphoblast (multiple myeloma), ATCC: CRL-2974
as §1, §2, §3, §4, §5, §6, §7, §8

For test [7], the target named is HL-60, promyeloblast (acute myelocytic leukemia, AML). Described as above. Conditions: HL-60 cells, read-out: EC50. On the procedure:
HL-60, promyeloblast (acute myelocytic leukemia, AML), ECACC: 98070106
as §1, §2, §3, §4, §5, §6, §7, §8

The subject of test [8] is A549 cells. Put plainly: Annexin V assay by flow cytometry. Here is the method: as §9
Cells were seeded at a density range of 150000-30000 cells/well in 12 wells plates, and incubated at 37° C. in the incubator under CO2 atmosphere. After 24 h, […] A549, HL-60 and MM.1S, at IC30 and/or IC80, with compounds IDP-S09 and IL-09, in cell lines HL-60 and MM.1S with compound IDP-S04 and in cell line A549 with compounds IDP-S02 and IDP-S03. Staurosporine and compound 100258-F4 (Sigma) were used as positive control and reference compound, respectively.

In test [9] the target is MCF-7, epithelial (breast cancer). Briefly: Viability assay (MTT, Alamar Blue, hexosaminidase), 72 h. Conditions: MCF7 cells, read-out: EC50. On the procedure:
MCF-7, epithelial (breast cancer), ECACC: 86012803
as §1, §2, §3, §4, §5, §6, §7, §8

The mark [10] stands for this setting: 4 h, compound at EC30, control = 100%.
Where [11] appears, read: 4 h, compound at EC80, control = 100%.

Numbered stars: 1 amine (or outer) side, 2 acyl side, 3 side chain; on linkers, the order of the positions; unused ones are H or OH. Peptide text beside a SMILES is read from it. Suc = O=C(CCC(=O)[*:2])[*:1]

For `CC[C@H](C)[C@H](NC(=O)[C@H](Cc1ccc(O)cc1)NC(=O)[C@H](C)NC(=O)[C@H](CC(C)C)NC(=O)[C@H](C)NC(=O)[C@H](CCCCN)NC(=O)[C@H](CCCCN)NC(=O)[C@H](Cc1ccccc1)NC(=O)[C@@H](NC(=O)[C@@H](NC(=O)[C@@H](NC(=O)[C@H](CCCCN)NC(=O)[C@@H]1CCCN1C(=O)[C@H](C)NC(=O)[C@H](CCCNC(=N)N)NC(=O)[C@H](CCCNC(=N)N)NC(=O)[C@H](CCCNC(=N)N)NC(=O)[C@H](CCCNC(=N)N)NC(=O)[C@H](CCCNC(=N)N)NC(=O)[C@H](CCCNC(=N)N)NC(=O)[C@H](CCCNC(=N)N)NC(=O)CCC(=O)O)[C@@H](C)CC)C(C)C)[C@@H](C)CC)C(N)=O` [IDP-L09] (Suc-RRRRRRRAPKIVIFKKALAYI-NH2), the half-maximal effective concentration (EC50) in [1] was > 100 µM; in test [2], 48 ± 5 µM; in test [5], 28 ± 1 µM; in test [6], 25 ± 1 µM; in [7], 46 ± 6 µM; in test [9], ~28 µM. The “Percentage of MM.1S gated cells (positive to Annexin V)” value in test [3] (setting [10]) is recorded as 50%; in [3] (setting [11]), 50%; in test [3] (8 h, compound at EC30, control = 100%) it was 220%; in test [3] (8 h, compound at EC80, control = 100%), 310%; in test [3] (48 h, compound at EC30, control = 100%) it was 190%; in test [3] (72 h, compound at EC30, control = 100%), 500%. For the same compound, the “apoptosis induction (Annexin V by FACS), in words” value in test [3] (MM.1S cells) is “induces apoptosis at 8 h, 48 h and 72 h at low concentration (IC30) and at 8 h at high concentration (IC80)”; in [4] (HL-60 cells) it was “apoptosis induction is significant after 48 h and 72 h at low concentrations (IC30)”; in test [8] (A549 cells), “fast induction (4 h) is observed”. Also, the “Percentage of HL-60 gated cells (positive to Annexin V)” value in test [4] (48 h) is given as 590%; in test [4] (72 h), 230%. Moreover, the “Percentage of A549 gated cells (positive to Annexin V)” value in test [8] (setting [10]) is on record as 900%; in test [8] (setting [11]) it was 2400%; in test [8] (16 h, compound at EC30, control = 100%) it was 400%; in [8] (16 h, compound at EC80, control = 100%), 950%.
